According to ChEMBL document CHEMBL4507272 (2021):

Experiments:
[1] = target: Beta-1 adrenergic receptor (Homo sapiens, UniProt P08588); assay: GPCRScan assay: inhibition of Beta1; parameters: radioligand conc. used [nm] 0.1 – 0.2, parental cells CHO Flp-In
[2] = system: Tyrosine-protein kinase ABL1 (Homo sapiens), P00519 [Q252H]; settings: Compound concentration 1000.0 nM
[3] = system: Tyrosine-protein kinase ABL1 (Homo sapiens), P00519 [T315I]; settings: Compound concentration 1000.0 nM
[4] = target: Activin receptor type-1-like (Homo sapiens) (UniProt P37023); settings: Compound concentration 1000.0 nM
[5] = target: Ankyrin repeat and protein kinase domain-containing protein 1 (Homo sapiens) (UniProt Q8NFD2); settings: Compound concentration 1000.0 nM
[6] = target: NUAK family SNF1-like kinase 1 (Homo sapiens) (UniProt O60285); settings: Compound concentration 1000.0 nM
[7] = target: Tyrosine-protein kinase Blk (Homo sapiens) (UniProt P51451); settings: Compound concentration 1000.0 nM
[8] = target: Mitotic checkpoint serine/threonine-protein kinase BUB1 (Homo sapiens) (UniProt O43683); settings: Compound concentration 1000.0 nM
[9] = target: Calcium/calmodulin-dependent protein kinase type 1 (Homo sapiens) (UniProt Q14012); settings: Compound concentration 1000.0 nM
[10] = target: Calcium/calmodulin-dependent protein kinase type 1D (Homo sapiens) (UniProt Q8IU85); settings: Compound concentration 1000.0 nM
[11] = target: Calcium/calmodulin-dependent protein kinase type II subunit alpha (Homo sapiens) (UniProt Q9UQM7); settings: Compound concentration 1000.0 nM
[12] = target: Cyclin-dependent kinase 11B (Homo sapiens) (UniProt P21127); settings: Compound concentration 1000.0 nM
[13] = target: Discoidin domain-containing receptor 2 (Homo sapiens) (UniProt Q16832); settings: Compound concentration 1000.0 nM
[14] = target: Dual specificity tyrosine-phosphorylation-regulated kinase 2 (Homo sapiens) (UniProt Q92630); settings: Compound concentration 1000.0 nM
[15] = system: Epidermal growth factor receptor (Homo sapiens), P00533 [L858R]; settings: Compound concentration 1000.0 nM
[16] = target: Tyrosine-protein kinase Fgr (Homo sapiens) (UniProt P09769); settings: Compound concentration 1000.0 nM
[17] = target: Tyrosine-protein kinase HCK (Homo sapiens) (UniProt P08631); settings: Compound concentration 1000.0 nM
[18] = target: Homeodomain-interacting protein kinase 1 (Homo sapiens) (UniProt Q86Z02); settings: Compound concentration 1000.0 nM
[19] = target: Homeodomain-interacting protein kinase 4 (Homo sapiens) (UniProt Q8NE63); settings: Compound concentration 1000.0 nM
[20] = target: Serine/threonine-protein kinase ICK (Homo sapiens) (UniProt Q9UPZ9); settings: Compound concentration 1000.0 nM
[21] = target: Interleukin-1 receptor-associated kinase 3 (Homo sapiens) (UniProt Q9Y616); settings: Compound concentration 1000.0 nM
[22] = target: Tyrosine-protein kinase JAK1 (Homo sapiens) (UniProt P23458); settings: Compound concentration 1000.0 nM
[23] = target: Mitogen-activated protein kinase 10 (Homo sapiens) (UniProt P53779); settings: Compound concentration 1000.0 nM
[24] = target: Tyrosine-protein kinase Lck (Homo sapiens) (UniProt P06239); settings: Compound concentration 1000.0 nM
[25] = target: Serine/threonine-protein kinase STK11 (Homo sapiens) (UniProt Q15831); settings: Compound concentration 1000.0 nM
[26] = target: Mitogen-activated protein kinase kinase kinase 3 (Homo sapiens) (UniProt Q99759); settings: Compound concentration 1000.0 nM
[27] = target: Dual specificity mitogen-activated protein kinase kinase 1 (Homo sapiens) (UniProt Q02750); settings: Compound concentration 1000.0 nM
[28] = target: MAP kinase-interacting serine/threonine-protein kinase 1 (Homo sapiens) (UniProt Q9BUB5); settings: Compound concentration 1000.0 nM
[29] = target: Serine/threonine-protein kinase mTOR (Homo sapiens) (UniProt P42345); settings: Compound concentration 1000.0 nM
[30] = target: Mitogen-activated protein kinase 12 (Homo sapiens) (UniProt P53778); settings: Compound concentration 1000.0 nM
[31] = target: Cyclin-dependent kinase 18 (Homo sapiens) (UniProt Q07002); settings: Compound concentration 1000.0 nM
[32] = system: Phosphatidylinositol 4,5-bisphosphate 3-kinase catalytic subunit alpha isoform (Homo sapiens), P42336 [E545K]; settings: Compound concentration 1000.0 nM
[33] = target: Phosphatidylinositol 4,5-bisphosphate 3-kinase catalytic subunit gamma isoform (Homo sapiens) (UniProt P48736); settings: Compound concentration 1000.0 nM
[34] = target: RAF proto-oncogene serine/threonine-protein kinase (Homo sapiens) (UniProt P04049); settings: Compound concentration 1000.0 nM
[35] = target: Receptor-interacting serine/threonine-protein kinase 1 (Homo sapiens) (UniProt Q13546); settings: Compound concentration 1000.0 nM
[36] = target: Ribosomal protein S6 kinase alpha-1 (Homo sapiens) (UniProt Q15418); settings: Compound concentration 1000.0 nM
[37] = target: Transient receptor potential cation channel subfamily M member 6 (Homo sapiens) (UniProt Q9BX84); settings: Compound concentration 1000.0 nM
[38] = target: Testis-specific serine/threonine-protein kinase 3 (Homo sapiens) (UniProt Q96PN8); settings: Compound concentration 1000.0 nM
[39] = target: Serine/threonine-protein kinase VRK2 (Homo sapiens) (UniProt Q86Y07); settings: Compound concentration 1000.0 nM
[40] = target: Wee1-like protein kinase 2 (Homo sapiens) (UniProt P0C1S8); settings: Compound concentration 1000.0 nM
[41] = target: 5-hydroxytryptamine receptor 1E (Homo sapiens) (UniProt P28566); settings: Compound concentration 10.0 uM
[42] = target: GABA-A receptor; anion channel (Rattus norvegicus) (UniProt O09028+P15431+P18506+P18508+P19969+P20236+P23574+P23576+P28471+P28473+P30191+P62813+P63079+P63138+Q91ZM7+Q9ES14); settings: Compound concentration 10.0 uM
[43] = target: Histamine H4 receptor (Homo sapiens) (UniProt Q9H3N8); settings: Compound concentration 10.0 uM

Beta-1 adrenergic receptor, sequence (P08588 whole entry): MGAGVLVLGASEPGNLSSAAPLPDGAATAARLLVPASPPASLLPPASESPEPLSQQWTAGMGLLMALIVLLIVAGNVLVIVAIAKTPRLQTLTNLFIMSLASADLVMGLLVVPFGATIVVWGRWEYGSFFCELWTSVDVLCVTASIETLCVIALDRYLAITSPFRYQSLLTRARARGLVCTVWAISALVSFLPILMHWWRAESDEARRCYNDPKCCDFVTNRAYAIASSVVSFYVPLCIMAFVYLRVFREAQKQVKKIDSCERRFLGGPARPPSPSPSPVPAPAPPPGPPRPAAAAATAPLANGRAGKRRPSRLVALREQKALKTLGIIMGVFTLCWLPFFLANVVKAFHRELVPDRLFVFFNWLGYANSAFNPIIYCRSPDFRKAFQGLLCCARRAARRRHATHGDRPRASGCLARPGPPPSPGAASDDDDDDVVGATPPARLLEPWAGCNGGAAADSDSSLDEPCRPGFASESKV
Homeodomain-interacting protein kinase 4 (Homo sapiens), sequence (Q8NE63 whole entry): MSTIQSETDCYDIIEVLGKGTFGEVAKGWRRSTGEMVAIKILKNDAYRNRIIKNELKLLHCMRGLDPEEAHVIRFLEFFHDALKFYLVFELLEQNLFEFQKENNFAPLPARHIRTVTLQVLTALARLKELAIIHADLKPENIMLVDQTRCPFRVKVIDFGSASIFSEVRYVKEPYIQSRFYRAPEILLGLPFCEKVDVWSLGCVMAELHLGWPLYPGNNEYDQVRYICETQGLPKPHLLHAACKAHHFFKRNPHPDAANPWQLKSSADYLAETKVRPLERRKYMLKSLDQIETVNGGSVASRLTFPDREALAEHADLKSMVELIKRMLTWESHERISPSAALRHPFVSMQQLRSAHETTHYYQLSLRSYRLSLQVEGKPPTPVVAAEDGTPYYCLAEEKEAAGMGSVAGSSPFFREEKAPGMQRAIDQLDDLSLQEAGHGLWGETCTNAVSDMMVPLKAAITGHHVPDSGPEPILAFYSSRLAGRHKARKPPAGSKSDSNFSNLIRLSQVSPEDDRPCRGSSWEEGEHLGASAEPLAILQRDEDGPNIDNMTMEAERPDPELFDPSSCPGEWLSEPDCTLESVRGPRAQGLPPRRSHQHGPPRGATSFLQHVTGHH
MAP kinase-interacting serine/threonine-protein kinase 1 (Homo sapiens), sequence (Q9BUB5 whole entry, looked up): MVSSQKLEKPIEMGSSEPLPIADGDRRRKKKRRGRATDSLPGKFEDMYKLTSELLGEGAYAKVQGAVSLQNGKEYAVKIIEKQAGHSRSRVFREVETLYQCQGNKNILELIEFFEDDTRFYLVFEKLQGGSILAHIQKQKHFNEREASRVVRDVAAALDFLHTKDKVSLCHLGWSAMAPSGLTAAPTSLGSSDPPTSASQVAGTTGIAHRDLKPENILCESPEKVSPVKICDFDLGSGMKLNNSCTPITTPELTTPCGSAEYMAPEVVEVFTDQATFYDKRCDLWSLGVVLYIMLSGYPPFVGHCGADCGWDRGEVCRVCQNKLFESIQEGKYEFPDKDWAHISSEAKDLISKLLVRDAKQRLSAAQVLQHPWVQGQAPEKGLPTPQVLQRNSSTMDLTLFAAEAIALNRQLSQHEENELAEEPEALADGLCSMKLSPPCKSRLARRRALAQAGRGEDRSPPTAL
Activin receptor type-1-like (Homo sapiens), sequence (P37023 whole entry, the tested form may be a part): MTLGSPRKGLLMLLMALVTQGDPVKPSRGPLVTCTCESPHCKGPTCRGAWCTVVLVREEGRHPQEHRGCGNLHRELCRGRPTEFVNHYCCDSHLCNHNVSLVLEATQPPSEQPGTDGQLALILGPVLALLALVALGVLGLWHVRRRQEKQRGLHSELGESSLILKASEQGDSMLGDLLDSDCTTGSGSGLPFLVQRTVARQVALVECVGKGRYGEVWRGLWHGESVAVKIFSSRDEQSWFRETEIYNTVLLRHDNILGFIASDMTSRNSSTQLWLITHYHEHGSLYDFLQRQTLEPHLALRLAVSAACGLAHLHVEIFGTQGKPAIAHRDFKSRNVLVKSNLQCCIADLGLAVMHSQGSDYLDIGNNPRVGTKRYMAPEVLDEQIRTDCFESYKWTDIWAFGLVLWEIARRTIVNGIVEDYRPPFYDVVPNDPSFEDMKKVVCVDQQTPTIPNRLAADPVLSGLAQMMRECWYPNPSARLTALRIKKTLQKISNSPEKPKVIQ
Serine/threonine-protein kinase ICK (Homo sapiens), sequence (Q9UPZ9 whole entry): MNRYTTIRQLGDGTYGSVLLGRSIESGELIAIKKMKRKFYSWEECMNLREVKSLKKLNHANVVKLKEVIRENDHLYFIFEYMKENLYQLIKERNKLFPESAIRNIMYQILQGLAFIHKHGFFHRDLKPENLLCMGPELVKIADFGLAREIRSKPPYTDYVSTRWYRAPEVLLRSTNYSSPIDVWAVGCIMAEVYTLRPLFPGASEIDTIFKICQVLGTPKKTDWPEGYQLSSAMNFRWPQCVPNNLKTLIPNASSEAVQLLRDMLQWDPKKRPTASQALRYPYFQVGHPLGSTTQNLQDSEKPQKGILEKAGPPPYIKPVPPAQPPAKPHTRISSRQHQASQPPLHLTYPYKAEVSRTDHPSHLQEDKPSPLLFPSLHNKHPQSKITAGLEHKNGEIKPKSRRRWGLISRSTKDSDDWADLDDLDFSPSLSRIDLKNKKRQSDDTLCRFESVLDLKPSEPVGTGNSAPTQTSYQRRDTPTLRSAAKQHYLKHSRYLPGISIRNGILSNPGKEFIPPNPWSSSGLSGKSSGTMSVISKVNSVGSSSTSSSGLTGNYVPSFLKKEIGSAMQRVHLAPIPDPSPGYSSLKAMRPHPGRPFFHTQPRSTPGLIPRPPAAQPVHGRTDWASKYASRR
Cyclin-dependent kinase 11B (Homo sapiens), sequence (P21127 whole entry, the tested form may be a part): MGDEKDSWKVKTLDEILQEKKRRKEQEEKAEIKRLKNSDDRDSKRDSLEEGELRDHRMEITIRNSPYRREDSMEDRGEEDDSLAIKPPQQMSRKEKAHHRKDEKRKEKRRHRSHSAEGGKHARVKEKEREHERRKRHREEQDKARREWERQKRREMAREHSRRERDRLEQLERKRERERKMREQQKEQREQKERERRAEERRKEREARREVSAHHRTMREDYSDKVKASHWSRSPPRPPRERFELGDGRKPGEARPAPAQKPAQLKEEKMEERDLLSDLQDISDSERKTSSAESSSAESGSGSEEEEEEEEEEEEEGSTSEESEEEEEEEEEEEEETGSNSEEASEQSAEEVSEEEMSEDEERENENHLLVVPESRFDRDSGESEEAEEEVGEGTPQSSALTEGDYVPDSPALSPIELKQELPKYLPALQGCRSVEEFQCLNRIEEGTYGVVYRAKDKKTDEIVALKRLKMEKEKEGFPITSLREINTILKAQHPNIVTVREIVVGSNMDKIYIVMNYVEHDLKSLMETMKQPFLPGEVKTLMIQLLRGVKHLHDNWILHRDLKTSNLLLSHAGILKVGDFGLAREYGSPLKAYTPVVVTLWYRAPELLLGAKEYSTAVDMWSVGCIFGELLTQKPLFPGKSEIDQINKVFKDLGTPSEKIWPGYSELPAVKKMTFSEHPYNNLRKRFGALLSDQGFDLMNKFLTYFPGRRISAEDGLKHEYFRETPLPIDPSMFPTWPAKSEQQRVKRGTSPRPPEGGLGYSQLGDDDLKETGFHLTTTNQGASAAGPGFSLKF
NUAK family SNF1-like kinase 1 (Homo sapiens), sequence (O60285 whole entry): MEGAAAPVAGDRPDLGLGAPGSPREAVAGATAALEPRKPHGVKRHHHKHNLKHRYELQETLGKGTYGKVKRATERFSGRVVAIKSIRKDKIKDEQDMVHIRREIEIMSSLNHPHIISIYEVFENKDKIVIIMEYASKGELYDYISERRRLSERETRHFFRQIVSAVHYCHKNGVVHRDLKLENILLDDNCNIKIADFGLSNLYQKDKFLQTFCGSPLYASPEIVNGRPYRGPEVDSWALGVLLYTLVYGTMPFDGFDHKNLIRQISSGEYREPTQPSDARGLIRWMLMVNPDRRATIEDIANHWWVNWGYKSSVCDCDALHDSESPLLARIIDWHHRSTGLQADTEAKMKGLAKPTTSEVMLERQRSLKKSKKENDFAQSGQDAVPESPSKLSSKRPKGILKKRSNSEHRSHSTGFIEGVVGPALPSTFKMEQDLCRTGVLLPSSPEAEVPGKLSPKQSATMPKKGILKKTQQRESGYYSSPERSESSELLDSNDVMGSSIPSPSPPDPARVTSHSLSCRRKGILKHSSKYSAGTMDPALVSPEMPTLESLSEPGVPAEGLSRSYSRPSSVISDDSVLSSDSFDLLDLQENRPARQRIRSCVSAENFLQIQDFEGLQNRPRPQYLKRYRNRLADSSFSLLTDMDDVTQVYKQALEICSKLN
Ankyrin repeat and protein kinase domain-containing protein 1 (Homo sapiens), sequence (Q8NFD2 whole entry, the tested form may be a part): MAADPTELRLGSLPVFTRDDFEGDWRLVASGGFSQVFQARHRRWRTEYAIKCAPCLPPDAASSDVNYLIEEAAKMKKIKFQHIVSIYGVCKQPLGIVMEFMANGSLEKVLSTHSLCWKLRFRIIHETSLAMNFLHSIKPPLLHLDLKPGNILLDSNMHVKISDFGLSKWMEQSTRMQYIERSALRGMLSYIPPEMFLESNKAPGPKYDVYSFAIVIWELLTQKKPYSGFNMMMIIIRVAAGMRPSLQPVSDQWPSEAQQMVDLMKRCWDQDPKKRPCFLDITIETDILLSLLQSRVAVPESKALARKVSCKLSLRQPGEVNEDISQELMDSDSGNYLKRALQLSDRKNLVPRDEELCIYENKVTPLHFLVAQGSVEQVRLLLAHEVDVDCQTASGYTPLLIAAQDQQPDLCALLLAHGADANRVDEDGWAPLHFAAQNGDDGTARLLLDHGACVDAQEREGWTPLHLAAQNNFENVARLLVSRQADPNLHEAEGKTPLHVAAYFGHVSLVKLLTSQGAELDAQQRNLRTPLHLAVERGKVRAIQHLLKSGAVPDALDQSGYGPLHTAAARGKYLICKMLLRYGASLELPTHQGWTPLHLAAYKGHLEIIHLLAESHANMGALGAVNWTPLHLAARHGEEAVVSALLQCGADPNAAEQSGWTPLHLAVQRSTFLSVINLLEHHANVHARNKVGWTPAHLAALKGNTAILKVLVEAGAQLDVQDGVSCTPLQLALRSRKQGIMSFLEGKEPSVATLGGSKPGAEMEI

SMILES: CC(=O)C1=C(C)N(c2cccc(C(F)(F)F)c2)C(=O)N[C@@H]1c1ccc(C#N)nc1 [BAY-678]
- Ki ([1]; read-out: Ki): 5.45 µM
- Ki ([1]; read-out: pKi (converted)): 5.01 µM
- residual activity [2]: 94.3%
- residual activity [3]: 96.9%
- residual activity [4]: 71.7%
- residual activity [5]: 100%
- residual activity [6]: 93.2%
- residual activity [7]: 95.8%
- residual activity [8]: 100%
- residual activity [9]: 86.7%
- residual activity [10]: 79.4%
- residual activity [11]: 92.5%
- residual activity [12]: 100%
- residual activity [13]: 87.6%
- residual activity [14]: 100%
- residual activity [15]: 80.8%
- residual activity [16]: 86.7%
- residual activity [17]: 87.7%
- residual activity [18]: 72.6%
- residual activity [19]: 100%
- residual activity [20]: 100%
- residual activity [21]: 100%
- residual activity [22]: 100%
- residual activity [23]: 100%
- residual activity [24]: 100%
- residual activity [25]: 72.8%
- residual activity [26]: 100%
- residual activity [27]: 93.3%
- residual activity [28]: 100%
- residual activity [29]: 92.5%
- residual activity [30]: 77.4%
- residual activity [31]: 85.1%
- residual activity [32]: 77.5%
- residual activity [33]: 100%
- residual activity [34]: 100%
- residual activity [35]: 85.8%
- residual activity [36]: 100%
- residual activity [37]: 83.8%
- residual activity [38]: 96.2%
- residual activity [39]: 77.6%
- residual activity [40]: 100%
- inhibition [41]: 7.74%
- inhibition [42]: 11.9%
- inhibition [43]: 25.9%
